Consider 22 molecules from patent publication US20260078130A1, “NAMPT MODULATORS, PREPARATIONS, AND USES THEREOF” (SIRONAX LTD., priority 2022, published 2026).

Each structure is given as a SMILES string. Read-outs that look alike come from different tables or passages of the source. Some results are limits rather than exact numbers.

The target in test [1] is T1, human enzyme NAMPT (full length) (Homo sapiens, UniProt P43490).
T1 construct: human enzyme NAMPT (full length)
The experiment in a line: NMN fluorescence biochemical assay (stimulation of NMN synthesis by NAMPT). The following applies: for EC50: concentration giving half-maximal activation, read-out: Enzymatic EC50; for Enzymatic Emax: fold change of maximal activation compared to DMSO. The method, boiled down: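 Full-length human NAMPT (100 nM) was preincubated 15 min at 37 °C with compound in 50 mM Tris-HCl pH 7.5, 10 mM MgCl2, 2 mM DTT, then reacted 1 h at 37 °C with 50 μM NAM, 100 μM PRPP, 4 mM ATP (stated solution concentrations). NMN was derivatised with acetophenone/KOH then formic acid and read at Ex/Em 382/445 nm; EC50 and Emax (fold over DMSO) reported.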

In test [2] the test system is endogenous NAMPT in U2OS cells. In words: Cellular NAD+ modulation assay (NAD/NADH-Glo, U2OS cells). The format is cell-based. The following applies: Homo sapiens; for maximal fold induction: read-out: Cellular Emax. The protocol:
Certain compounds described herein were also assayed for their ability to stimulate the endogenous NAMPT in a native cellular environment in a cellular NAD^+ modulation assay. U2OS cells were grown in McCoy's 5A medium with 10% fetal bovine serum, in a humidified incubator with an atmosphere of 95% air and 5% CO2 at 37° C. The assays were initiated by plating 30 μL of U2OS cells in a culture medium with 10% fetal bovine serum, at a density of 3000 cells per well in a Corning® 384-well White/Clear Bottom Polystyrene Microplate. The plates were incubated in 37T incubators for a period of 16 hours. Test compounds with a series of concentrations in DMSO were added to the plates in a volume of 150 nL using Echo Liquid handlers. The plates are then incubated for 24 hours. The medium was removed from the wells, then 10 μL PBS was added to each well. To each well of cells in 10 μL of PBS, 10 μL of base solution with 1% DTAB was added. The plate was briefly mixed on a plate shaker to ensure homogeneity and cell lysis (5 mins). 10p L of 0.4N HCl was added per well. The plate was coved, and all samples were incubated for 15 minutes at 60° C. Then the plate was equilibrated for 10 minutes at room temperature. 10 μL of 0.5M Trizma® base was added to each well of acid-treated cells to neutralize the acid. Finally, 30 μL of NAD/NADH-Glo™ Detection Reagent was added. The plate was gently shaken to mix the samples. The plate was incubated for 40 minutes at room temperature. Luminescence was recorded using a luminometer. The potency measurements for the test compounds were quantified and represented as EC50 (concentration of a compound that gives half-maximal activation) and Emax (fold change of a compound's maximal activation compared to DMSO).

[3] abbreviates: NMN fluorescence assay, purified human NAMPT 100 nM.
Setting [4] is: 24 hours incubation, cellular NAD+.
Where [5] appears, read: NMN synthesis by purified human NAMPT (100 nM).
Setting [6] is: 24 hours incubation with compound.

T1 sequence (P43490 whole entry): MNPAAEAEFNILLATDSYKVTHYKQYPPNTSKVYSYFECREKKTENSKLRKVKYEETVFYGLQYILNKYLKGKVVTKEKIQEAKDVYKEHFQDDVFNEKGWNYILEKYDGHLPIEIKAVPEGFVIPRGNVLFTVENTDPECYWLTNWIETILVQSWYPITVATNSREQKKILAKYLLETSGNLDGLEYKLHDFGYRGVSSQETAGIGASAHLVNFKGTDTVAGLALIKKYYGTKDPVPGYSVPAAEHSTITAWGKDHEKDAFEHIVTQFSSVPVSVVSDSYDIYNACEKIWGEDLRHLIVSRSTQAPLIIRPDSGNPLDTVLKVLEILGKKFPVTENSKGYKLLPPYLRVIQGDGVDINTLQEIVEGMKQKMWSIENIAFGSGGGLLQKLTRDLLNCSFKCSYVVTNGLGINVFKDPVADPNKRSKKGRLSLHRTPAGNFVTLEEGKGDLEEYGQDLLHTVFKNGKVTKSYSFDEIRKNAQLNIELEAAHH

With `C/C(=C\CN1C(=O)c2ccccc2C1Cc1ncccc1Br)c1c[nH]nn1` (stereo not shown) [Compound 425, (E)-2-(3-(1H-1,2,3-triazol-4-yl)but-2-en-1-yl)-3-((3-bromopyridin-2-yl)methyl) isoindolin-1-one], the EC50 (in general, the concentration needed to bring the measured effect to its halfway point) in test [1] (setting [3]) was less than 0.5 µM. The “Enzymatic Emax” value in test [1] is recorded as “B (3≥B>2)”. Besides, in test [2] (setting [4]), the EC50 was less than 0.5 µM and the maximal fold induction was greater than 1.5.

For the molecule `Cn1ncc(Cl)c1CC1c2c(Cl)cccc2C(=O)N1Cc1ccc2[nH]nnc2c1` (stereo not shown) [Compound 339, 2-((1H-benzo[d][1,2,3]triazol-5-yl)methyl)-4-chloro-3-((4-chloro-1-methyl-1H-pyrazol-5-yl)methyl)isoindolin-1-one], in test [1] (setting [3]), the EC50 is 0.5 to 5 µM. Further, in test [1], the “Enzymatic Emax” value was “A (A>3)”. Moreover, in test [2] (setting [4]), the EC50 was in the range of 0.5 to 5 µM and the maximal fold induction was greater than 1.5.

Consider `CC(=O)Nc1ccc(CN2Cc3ccccc3C2=O)cc1` [Compound 104, N-(4-((1-oxoisoindolin-2-yl)methyl)phenyl)acetamide], for which the EC50 in test [1] (setting [5]) was no less than 5 µM; in test [2] (setting [6]) it was 5 to 50 µM. The “Enzymatic Emax” value in test [1] is on record as “B (3≥B>2)”. The maximal fold induction in test [2] (setting [6]) is greater than 1.5.

`COc1ccc(CN2C(=O)c3ccccc3C2Cc2c(C)ncnc2C#N)cc1` (stereo not shown) [Compound 597, 5-((2-(4-methoxybenzyl)-3-oxoisoindolin-1-yl)methyl)-6-methylpyrimidine-4-carbonitrile]: the EC50 in test [1] (setting [3]) was 0.5 to 5 µM. The “Enzymatic Emax” value in test [1] is given as “B (3≥B>2)”. For the same molecule, in test [2] (setting [4]), the EC50 is less than 0.5 µM and the maximal fold induction was greater than 1.5.

Take `O=C1c2ccccc2CCN1Cc1ccc(O)cc1` [Compound 2, 2-(4-hydroxybenzyl)-3,4-dihydroisoquinolin-1(2H)-one]: in test [1] (setting [5]), the EC50 fell in the range of 0.5 to 5 µM. Further, in test [1], the “Enzymatic Emax” value is “A (A>3)”. For the same molecule, in test [2] (setting [6]), the EC50 lay within 0.5 to 5 µM and the maximal fold induction was greater than 1.5.

As to `O=C1c2ccc(N3CCOCC3)cc2CN1Cc1ccc2[nH]c(=O)oc2c1` [Compound 47, 6-((5-morpholino-1-oxoisoindolin-2-yl)methyl)benzo[d]oxazol-2(3H)-one], the results for the EC50 in test [1] (setting [5]) and in test [2] (setting [6]) were no less than 5 µM and 5 to 50 µM, respectively. The “Enzymatic Emax” value in test [1] is recorded as “B (3≥B>2)”. Also, the maximal fold induction in test [2] (setting [6]) is greater than 1.5.

In the case of `N#Cc1ccccc1CC1c2ccccc2C(=O)N1Cc1ccc2[nH]nnc2c1` (stereo not shown) [Compound 189, 2-((2-((1H-benzo[d][1,2,3]triazol-5-yl)methyl)-3-oxoisoindolin-1-yl)methyl)benzonitrile], the EC50 in test [1] (setting [5]) lay within 0.5 to 5 µM. In test [1], the “Enzymatic Emax” value is recorded as “B (3≥B>2)”. In test [2] (setting [6]), the EC50 was in the range of 0.5 to 5 µM and the maximal fold induction was greater than 1.5.

In the case of `CC(=O)Nc1ccc(CN2C(=O)c3ccccc3C2C)cc1` (stereo not shown) [Compound 82, N-(4-((1-methyl-3-oxoisoindolin-2-yl)methyl)phenyl)acetamide], the EC50 in test [1] (setting [5]) is no less than 5 µM. Further, the “Enzymatic Emax” value in test [1] is given as “B (3≥B>2)”. Further, in test [2] (setting [6]), the EC50 is 0.5 to 5 µM and the maximal fold induction fell in the range of 1.2 to 1.5.

As for `N#Cc1ccc(F)c(CC2c3ccccc3C(=O)N2Cc2ccc3[nH]c(=O)oc3c2)c1` (stereo not shown) [Compound 202, 4-fluoro-3-((3-oxo-2-((2-oxo-2,3-dihydrobenzo[d]oxazol-6-yl)methyl)isoindolin-1-yl)methyl)benzonitrile], in test [1] (setting [5]), the EC50 fell in the range of 0.5 to 5 µM. The “Enzymatic Emax” value in test [1] is recorded as “A (A>3)”. In addition, in test [2] (setting [6]), the EC50 was less than 0.5 µM and the maximal fold induction is greater than 1.5.

With `Cn1ncc(Cl)c1CC1c2ccccc2C(=O)N1CC#Cc1cn[nH]c1` (stereo not shown) [Compound 453, 2-(3-(1H-pyrazol-4-yl)prop-2-yn-1-yl)-3-((4-chloro-1-methyl-1H-pyrazol-5-yl)methyl)isoindolin-1-one], in test [1] (setting [3]), the EC50 is less than 0.5 µM. Further, the “Enzymatic Emax” value in test [1] is reported as “B (3≥B>2)”. Moreover, in test [2] (setting [4]), the concentration for a half-maximal effect (EC50) was less than 0.5 µM and the maximal fold induction is greater than 1.5.

Take `CC1c2cc(NC3CC4(COC4)C3)ccc2C(=O)N1Cc1ccc2[nH]c(=O)oc2c1` (stereo not shown) [Compound 149, 6-((5-((2-oxaspiro[3.3]heptan-6-yl)amino)-3-methyl-1-oxoisoindolin-2-yl)methyl)benzo[d]oxazol-2(3H)-one]: the EC50 in test [1] (setting [5]) was 0.5 to 5 µM. Further, the “Enzymatic Emax” value in test [1] is recorded as “B (3≥B>2)”. Also, in test [2] (setting [6]), the EC50 fell in the range of 0.5 to 5 µM and the maximal fold induction is greater than 1.5.

On to `O=C1c2ccccc2C(Cc2n[nH]cc2Cl)N1Cc1ccc2[nH]nnc2c1` (stereo not shown) [Compound 388, 2-((1H-benzo[d][1,2,3]triazol-5-yl)methyl)-3-((4-chloro-1H-pyrazol-3-yl)methyl)isoindolin-1-one], for which the EC50 in test [1] (setting [3]) was less than 0.5 µM; in test [2] (setting [4]), 0.5 to 5 µM. For the same molecule, the “Enzymatic Emax” value in test [1] is recorded as “B (3≥B>2)”. Also, the maximal fold induction in test [2] (setting [4]) was greater than 1.5.

With `Cn1ncc(Cl)c1CC1c2ccccc2C(=O)N1CC1CC2(CNC(=S)O2)C1` (stereo not shown) [Compound 490, 3-((4-chloro-1-methyl-1H-pyrazol-5-yl)methyl)-2-((6-thioxo-5-oxa-7-azaspiro[3.4]octan-2-yl)methyl)isoindolin-1-one], the EC50 in test [1] (setting [3]) and in test [2] (setting [4]) was 0.5 to 5 µM throughout. In addition, the “Enzymatic Emax” value in test [1] is listed as “B (3≥B>2)”. In addition, the maximal fold induction in test [2] (setting [4]) was greater than 1.5.

Turning to `CC1c2cc(NC3CC3)ccc2C(=O)N1Cc1ccc2[nH]c(=O)oc2c1` (single isomer, unassigned) [Compound 242], the EC50 in test [1] (setting [5]) was no less than 5 µM. Moreover, in test [1], the “Enzymatic Emax” value is on record as “A (A>3)”. Moreover, in test [2] (setting [6]), the EC50 fell in the range of 0.5 to 5 µM and the maximal fold induction was greater than 1.5.

Turning to `O=C1c2ccccc2C(Cc2ccccc2)N1Cc1ccc2[nH]c(=O)oc2c1` (stereo not shown) [Compound 106, 6-((1-benzyl-3-oxoisoindolin-2-yl)methyl)benzo[d]oxazol-2(3H)-one], in test [1] (setting [5]), the EC50 fell in the range of 0.5 to 5 µM. For the same molecule, the “Enzymatic Emax” value in test [1] is “A (A>3)”. In test [2] (setting [6]), the EC50 was 0.5 to 5 µM and the maximal fold induction was 1.2 to 1.5.

Take `Cn1ncc(Cl)c1CC1c2cc(C(F)F)ccc2C(=O)N1Cc1ccc2[nH]nnc2c1` (stereo not shown) [Compound 435, 2-((1H-benzo[d][1,2,3]triazol-5-yl)methyl)-3-((4-chloro-1-methyl-1H-pyrazol-5-yl)methyl)-5-(difluoromethyl)isoindolin-1-one]: in test [1] (setting [3]), the EC50 is less than 0.5 µM. Moreover, in test [1], the “Enzymatic Emax” value is given as “A (A>3)”. For the same molecule, in test [2] (setting [4]), the EC50 is less than 0.5 µM and the maximal fold induction was greater than 1.5.

In the case of `Cn1ncc(Cl)c1CC1c2ccccc2C(=O)N1Cc1nn[nH]c1F` (stereo not shown) [Compound 630, 3-((4-chloro-1-methyl-1H-pyrazol-5-yl)methyl)-2-((5-fluoro-1H-1,2,3-triazol-4-yl)methyl)isoindolin-1-one], in test [1] (setting [3]), the concentration for a half-maximal effect (EC50) is no less than 5 µM. Moreover, the “Enzymatic Emax” value in test [1] is recorded as “C (2≥C)”.

With `Cc1cc(Cl)n(CC2c3ccccc3C(=O)N2Cc2ccc3[nH]nnc3c2)n1` (stereo not shown) [Compound 355, 2-((1H-benzo[d][1,2,3]triazol-5-yl)methyl)-3-((5-chloro-3-methyl-1H-pyrazol-1-yl)methyl)isoindolin-1-one], in test [1] (setting [3]), the EC50 is no less than 5 µM. The “Enzymatic Emax” value in test [1] is “A (A>3)”.

Consider `Cc1cc(F)c2c(c1)C(Cc1c(Cl)cnn1C)N(CC1CC3(CNC(=O)O3)C1)C2=O` (stereo not shown) [Compound 506, 2-((1-((4-chloro-1-methyl-1H-pyrazol-5-yl)methyl)-4-fluoro-6-methyl-3-oxoisoindolin-2-yl)methyl)-5-oxa-7-azaspiro[3.4]octan-6-one], for which the 50% effective concentration (EC50) in test [1] (setting [3]) was less than 0.5 µM. Besides, the “Enzymatic Emax” value in test [1] was “B (3≥B>2)”.

For `CC(C)(C)c1ccc2c(c1)C(=O)N(Cc1ccc(O)cc1)C2=O` [Compound 18, 5-(tert-butyl)-2-(4-hydroxybenzyl)isoindoline-1,3-dione], in test [1] (setting [5]), the half-maximal effective concentration (EC50) lay in the range of 0.5 to 5 µM. In addition, the “Enzymatic Emax” value in test [1] was “B (3≥B>2)”.

Turning to `O=C1c2ccccc2C(COc2cccc(Cl)n2)N1Cc1ccc2[nH]c(=O)oc2c1` (stereo not shown) [Compound 260, 6-((1-(((6-chloropyridin-2-yl)oxy)methyl)-3-oxoisoindolin-2-yl)methyl)benzo[d]oxazol-2(3H)-one], in test [1] (setting [5]), the EC50 was in the range of 0.5 to 5 µM. The “Enzymatic Emax” value in test [1] is listed as “B (3≥B>2)”.

As to `Cn1c(CC2c3ccccc3C(=O)N2CC2CC3(CNC(=O)O3)C2)ccc(Cl)c1=O` (stereo not shown) [Compound 472, 2-((1-((5-chloro-1-methyl-6-oxo-1,6-dihydropyridin-2-yl)methyl)-3-oxoisoindolin-2-yl)methyl)-5-oxa-7-azaspiro[3.4]octan-6-one], in test [1] (setting [3]), the EC50 is no less than 5 µM. In test [1], the “Enzymatic Emax” value was “C (2≥C)”.
